Here are results for 21 compounds from US11345712B2, “Protein-targeting compounds and pharmaceutical compositions thereof, and their therapeutic applications” (BioTheryX, Inc., priority 2019, dated 2022).

The subject of the first data set is MOLM-13 cells. Nature of the data set: MOLM-13 cell viability assay (CellTiter-Glo). In kind it is cell-based. The following applies: 3 days, concentration of 1 μM. The protocol:
MOLM-13 cells were cultured in RPMI 1640 media supplemented with 10% fetal bovine serum, streptomycin, and penicillin. The cells were plated in white walled 96-well plates at 2,500 cells/well. The cells were incubated in DMSO (control) or an indicated compound for 3 days at 37° C. and 5% CO2. Following the incubation period, 100 μL of CELLTITER-GLO® (CTG) reagent was added to each well. Following a 10 minutes incubation with shaking, luminescence was measured using an ENVISION® Multimode plate reader.
In general terms: In ATP-based viability assays light output follows the ATP content of the culture.
As for `CC(C)(C)c1ccc(C(=O)C(=O)NCc2scc3c2CN(C2CCC(=O)NC2=O)C3=O)cc1` (stereo not drawn) [Compound I-40, 2-(4-(tert-butyl)phenyl)-N-((5-(2,6-dioxopiperidin-3-yl)-4-oxo-5,6-dihydro-4H-thieno[3,4-c]pyrrol-1-yl)methyl)-2-oxoacetamide], the “Antiproliferative Activity (inhibition, MOLM-13 cell viability)” value is reported as “D (a value less than 25% inhibition)”.

Staying with this data set, now noted: Homo sapiens, MOLM-13, 72 h, 3 days, concentration of 1 μM, read-out: Antiproliferative Activity (inhibition, MOLM-13 cell viability).
Consider `COc1ccc(C(=O)C(=O)NCc2cccc3c2CN(C2CCC(=O)NC2=O)C3=O)cc1` (stereo not drawn) [Compound I-78, 2-(4-methoxyphenyl)-N-((2-(2,6-dioxopiperidin-3-yl)-1-oxoisoindolin-4-yl)methyl)-2-oxoacetamide], for which the cytotoxicity at 1 µM is 25 to 50%.
Still for that read-out and setting: the same measure for `CC(C)N(C)c1cccc(NC(=O)NCc2cc3c(s2)C(=O)N(C2CCC(=O)NC2=O)C3)c1` (stereo not drawn) [II-56, 1-((5-(2,6-dioxopiperidin-3-yl)-6-oxo-5,6-dihydro-4H-thieno[2,3-c]pyrrol-2-yl)methyl)-3-(3-(isopropyl(methyl)amino)phenyl)urea]: over 80%.
Same read-out and setting: under `O=C1CCC(N2Cc3c(csc3CNC(=O)C(F)(F)c3ccc(C4(C(F)(F)F)CC4)cc3)C2=O)C(=O)N1` (stereo not drawn) [II-165, N-((5-(2,6-Dioxopiperidin-3-yl)-4-oxo-5,6-dihydro-4H-thieno[3,4-c]pyrrol-1-yl)methyl)-2,2-difluoro-2-(4-(1-(trifluoromethyl)cyclopropyl)phenyl)acetamide] stands under 25%; under `Cc1ccc(C(F)(F)C(=O)NCc2scc3c2CN([C@H]2CCCC(=O)NC2=O)C3=O)cc1Cl` [II-29, (S)-2-(3-chloro-4-methylphenyl)-N-((5-(2,7-dioxoazepan-3-yl)-4-oxo-5,6-dihydro-4H-thieno[3,4-c]pyrrol-1-yl)methyl)-2,2-difluoroacetamide], under 25%.
Still for that read-out and setting: under `N#Cc1ccc(C(=O)C(=O)NCc2ccc3c(c2)CN(C2CCC(=O)NC2=O)C3=O)cc1` (stereo not drawn) [Compound I-90, 2-(4-cyanophenyl)-N-((2-(2,6-dioxopiperidin-3-yl)-1-oxoisoindolin-5-yl)methyl)-2-oxoacetamide] stands under 25%; under `Cc1ccc(NC(=O)NCc2cc3c(s2)C(=O)N(C2CC(=O)NC2=O)C3)cc1Cl` (stereo not drawn) [II-72, 1-(3-chloro-4-methylphenyl)-3-((5-(2,5-dioxopyrrolidin-3-yl)-6-oxo-5,6-dihydro-4H-thieno[2,3-c]pyrrol-2-yl)methyl)urea], 25 to 50%; under `O=C1CCC(N2Cc3c(CNC(=O)C(=O)c4ccc(C5(C(F)(F)F)CC5)cc4)cccc3C2=O)C(=O)N1` (stereo not drawn) [Compound I-30, N-((2-(2,6-dioxopiperidin-3-yl)-1-oxoisoindolin-4-yl)methyl)-2-oxo-2-(4-(1-(trifluoromethyl)cyclopropyl)phenyl)acetamide], over 80%.
Regarding `O=C1CCC(N2Cc3c(csc3CNC(=O)C(=O)c3ccc(Cl)cc3)C2=O)C(=O)N1` (stereo not drawn) [Compound I-18, 2-(4-chlorophenyl)-N-((5-(2,6-dioxopiperidin-3-yl)-4-oxo-5,6-dihydro-4H-thieno[3,4-c]pyrrol-1-yl)methyl)-2-oxoacetamide], the cytotoxicity at 1 µM was under 25%.
The same measure, in the same setting: the same measure for `CC(C)(C)c1ccc(C(=O)C(=O)NCCc2scc3c2CN(C2CCC(=O)NC2=O)C3=O)cc1` (stereo not drawn) [Compound I-41, 2-(4-(tert-butyl)phenyl)-N-(2-(5-(2,6-dioxopiperidin-3-yl)-4-oxo-5,6-dihydro-4H-thieno[3,4-c]pyrrol-1-yl)ethyl)-2-oxoacetamide]: over 80%; for `CC(C)(C)c1ccc(C(=O)C(=O)Nc2cccc3c2CN(C2CCC(=O)NC2=O)C3=O)cc1` (stereo not drawn) [Compound I-56, 2-(4-(tert-butyl)phenyl)-N-(2-(2,6-dioxopiperidin-3-yl)-1-oxoisoindolin-4-yl)-2-oxoacetamide]: under 25%.
On the same count and under the same terms, the same measure for `Cc1cc(NC(=O)NCc2cc3c(s2)C(=O)N(C2CCC(=O)NC2=O)C3)ccc1N1CCOCC1` (stereo not drawn) [II-26, 1-((5-(2,6-dioxopiperidin-3-yl)-6-oxo-5,6-dihydro-4H-thieno[2,3-c]pyrrol-2-yl)methyl)-3-(3-methyl-4-morpholinophenyl)urea]: under 25%.
Same read-out and setting: under `Cc1ccc(NC(=O)NCc2cc3c(s2)C(=O)N(C2CCC(=O)NC2=O)C3)cc1C(C)C` (stereo not drawn) [II-54, 1-((5-(2,6-dioxopiperidin-3-yl)-6-oxo-5,6-dihydro-4H-thieno[2,3-c]pyrrol-2-yl)methyl)-3-(3-isopropyl-4-methylphenyl)urea] stands over 80%; under `Cc1ccc(CC(=O)NCc2cc3c(s2)C(=O)N(C2CCC(=O)NC2=O)C3)cc1Cl` (stereo not drawn) [II-30, 2-(3-chloro-4-methylphenyl)-N-((5-(2,6-dioxopiperidin-3-yl)-6-oxo-5,6-dihydro-4H-thieno[2,3-c]pyrrol-2-yl)methyl)acetamide], under 25%.
`Cc1cc(C(C)(C)C)cc(C)c1C(=O)C(=O)NCc1ccc2c(c1)CN(C1CCC(=O)NC1=O)C2=O` (stereo not drawn) [Compound I-104, 2-(4-(tert-butyl)-2,6-dimethylphenyl)-N-((2-(2,6-dioxopiperidin-3-yl)-1-oxoisoindolin-5-yl)methyl)-2-oxoacetamide]: the cytotoxicity at 1 µM was over 80%.
Consider `CN(C)C(C(=O)NCc1scc2c1CN(C1CCC(=O)NC1=O)C2=O)c1ccccc1F` (stereo not drawn) [II-108, 2-(dimethylamino)-N-((5-(2,6-dioxopiperidin-3-yl)-4-oxo-5,6-dihydro-4H-thieno[3,4-c]pyrrol-1-yl)methyl)-2-(2-fluorophenyl)acetamide], for which the cytotoxicity at 1 µM was under 25%.
The same measure, in the same setting: under `COc1cc(NC(=O)NCc2cc3c(s2)C(=O)N(C2CCC(=O)NC2=O)C3)ccc1C` (stereo not drawn) [II-58, 1-((5-(2,6-dioxopiperidin-3-yl)-6-oxo-5,6-dihydro-4H-thieno[2,3-c]pyrrol-2-yl)methyl)-3-(3-methoxy-4-methylphenyl)urea] stands over 80%; under `Cc1ccc(C(=O)C(=O)NCc2scc3c2CN(C2CCC(=O)NC2=O)C3=O)cc1N(C)C` (stereo not drawn) [Compound I-44, 2-(3-(dimethylamino)-4-methylphenyl)-N-((5-(2,6-dioxopiperidin-3-yl)-4-oxo-5,6-dihydro-4H-thieno[3,4-c]pyrrol-1-yl)methyl)-2-oxoacetamide], over 80%; under `CC(C)(C)C1CCN(C(=O)C(=O)NCc2cccc3c2CN(C2CCC(=O)NC2=O)C3=O)CC1` (stereo not drawn) [Compound I-61, 2-(4-(tert-butyl)piperidin-1-yl)-N-((2-(2,6-dioxopiperidin-3-yl)-1-oxoisoindolin-4-yl)methyl)-2-oxoacetamide], under 25%.
Turning to `Cc1ccc(C(C(=O)NCc2scc3c2CN(C2CCC(=O)NC2=O)C3=O)C(C)C)cc1Cl` (stereo not drawn) [II-95, 2-(3-chloro-4-methylphenyl)-N-((5-(2,6-dioxopiperidin-3-yl)-4-oxo-5,6-dihydro-4H-thieno[3,4-c]pyrrol-1-yl)methyl)-3-methylbutanamide], the cytotoxicity at 1 µM is 25 to 50%.
Consider `CC(C)(C)c1ccc(C(O)(C(=O)NCc2scc3c2CN(C2CCC(=O)NC2=O)C3=O)C(F)(F)F)cc1` (stereo not drawn) [II-133, 2-(4-(tert-butyl)phenyl)-N-((5-(2,6-dioxopiperidin-3-yl)-4-oxo-5,6-dihydro-4H-thieno[3,4-c]pyrrol-1-yl)methyl)-3,3,3-trifluoro-2-hydroxypropanamide], for which the cytotoxicity at 1 µM was under 25%.
